Patent US20030114383A1, “Calcitonin-like sequence expressed by gonadotropes of the anterior pituitary” (priority 2001, published 2003)
Bridges are numbered along the chain shown (N, C = ends). Where no end group is shown, it is not given here.

Tests used:
perifused rat AP cells = settings: exogenously added; cited from earlier work
lactotrope = settings: rats; cited from earlier work
GGH3 cells = assay: Two-tier co-culture of CT transfectants with GGH3 cells: PRL release by RIA; assay type: cell-based, rat; settings: summary statement
Experimental: Levels of CTI and PRL in the conditioned media of LβT2 cells and CT-transfectants were determined by radioimmunoassay (RIA). The PRL RIA used the reagents provided by the National Institute of Diabetes, Digestive and Kidney diseases (NIDDK), and the assay protocol recommended by the NIDDK was followed. CTI was determined as described previously. All samples from this series of experiments were concurrently run in duplicate in the same RIA. Protein A (IgG Sorb) was used for the separation of bound from free hormone antigen. The experiments were repeated at least three separate times, and data from all the experiments were pooled for statistical analysis.
To further examine the role of pituitary-derived CT in lactotrope function, a two-tier co-culture system was developed where b 1×10^5 LβT2 cells or CT transfectants (CT.U6/A or CT.U6/B) are cultured separately in an upper chamber insert, whereas 2×10^5 GGH3 cells per well (target cells) are cultured in a 12-well plate. […] The conditioned media were analyzed for PRL by RIA. […]
The results on PRL release are expressed as ng PRL released by 100,000 cells over 24 hours. The results on PRL mRNA were digitized, normalized with β-actin mRNA and expressed as normalized densitometric units. […]

salmon calcitonin (CSNLSTCVLGKLSQELHKLQTYPRTNTGSGTP-NH2; disulfide 1-7) [SCT, calcitonin-like peptide derived from salmon]
PRL release from perifused rat AP cells (perifused rat AP cells): significantly attenuates
Secretion of GH, FSH, LH or TSH from perifused rat AP cells (perifused rat AP cells): without altering
Inhibition of PRL gene transcription and lactotrope cell proliferation (lactotrope): potent inhibitor

B1: Pit-CT: anterior pituitary-derived peptide with sequence homology to calcitonin; mature peptide SEQ. ID No. 3 and No. 4 (protein)
chain: QDQESPLRKHCLAPSGSPQAELQGTAHQEGIMGFLKFSPFLVVSILLLYQACSLQAVPLRSILGSSPGMATLSEEVRLLAAALVQDYMGMKPRELEQEEEQEAEGSSLDSPRSKRCGNLTTCMLGTYTQDLDLFHTFPQTSIGVEALGGEKGCGQGLGDLPPIPFWQLSSSFSPF
modifications: left off: small tags and cut ends
Inhibition of prolactin secretion by the pituitary of rats (GGH3 cells): very potent inhibitor
